Measurements reported in article PMC516463 (Evidence-based Complementary and Alternative Medicine, 2004).

System: HIV-1
Conditions: 10 μM, control inhibitor of infection

Q: How did the “Inhibition of HIV-1 infection of MAGIC-5B cells (in words)” value turn out when Cc1cn([C@H]2C[C@H](N=[N+]=[N-])[C@@H](CO)O2)c(=O)[nH]c1=O [AZT] was run?
A: totally suppressed
